How the values were obtained:
GFRα receptors = assay: Surface plasmon resonance (SPR) binding analysis, GFRα receptors; settings: immobilized receptor protein, 25° C., PBS pH 7.4
Procedure: Analysis of binding was performed employing a BIAcoreX instrument (Biosensor AB, Uppsala, Sweden) at 25° C. using 10 mM pH 7.4 sodium phosphate containing 150 mM NaCl as running buffer (phosphate-buffered saline, PBS). The flow-rate was 5 μl/min. Data were analysed by non-linear curve-fitting using the manufacturer's software. The receptor proteins, e.g. NCAM Ig1-Ig2 and GFR proteins, were immobilized on a sensor chip CM5 using an amine coupling kit (Biosensor AB) as follows: the chip was activated by 20 μl activation solution; the protein was immobilized using 12 μl 20 μg/ml protein in 10 mM sodium phosphate buffer pH 6.0; the chip was blocked by 35 μl blocking solution. Various peptides at the indicated concentrations were injected into the sensor chip. The curve corresponding to the difference between binding to receptor and a blank chip was used for analysis.

[1] = test system: cerebellar granule neurons (CGN); assay: Survival assay, cerebellar granule neurons (apoptosis induced by low KCl); assay type: cell-based, Wistar rat; settings: 5 mM KCl, two days after induction of apoptosis
Procedure: Cerebellar granule neurons (CGN) were prepared from postnatal day seven Wistar rats largely as previously described by Schousboe et al. (1989). Cerebellar tissue was dissected in modified Krebs-Ringer solution kept on ice, and treated as described for the hippocampal neurons above. All cell cultures were incubated at 37° C. in a humidified atmosphere containing 5% CO2. All animals were handled in accordance with the national guidelines for animal welfare.
Primary cultures of CGN were plated at a density of 100,000 cells/cm^2 on poly-L-lysine coated 8-well permanox slides in Neurobasal-A medium (Gibco, BRL) supplemented with 2% (v/v) B27, 0.5% (v/v) glutamax, 100 U/ml penicillin, 100 μg/ml streptomycin and KCl, making the final concentration of KCl in the medium 40 mM. 24 hours after plating, cytosine-β-D-arabinofuranoside (Ara-C; Sigma-Aldrich) was added to a final concentration of 10 μM to avoid proliferation of glial cells, after which the neurons were allowed to differentiate for further six days at 37° C. Apoptotic cell death was induced by washing twice and changing the medium to Basal Medium Eagle (BME; Gibco BRL) supplemented with 1% (v/v) glutamine, 100 U/ml penicillin and 100 μg/ml streptomycin, 3.5 g D-glucose/l and 1% (v/v) sodium pyruvate (Gibco BRL) together with various concentrations of peptide. Thereby the concentration of potassium in the cultures was reduced to 5 mM KCl (D'Mello et al., 1993). Two days after induction of apoptosis, the cells were fixed with 4% (v/v) formaldehyde and stained with Hoechst 33258 for 25 minutes as described by Kruman et al. (1997). Images of 1000-1500 neurons were randomly recorded for each group in each experiment using computer assisted fluorescence microscopy as described for the hippocampal neurite outgrowth assay. Nuclei from dead and live neurons were counted using the software package Prima developed at the Protein Laboratory, and the fraction of live neurons relative to the total number of neurons was estimated.

Row | binding to the GFRα receptors (SPR) (GFRα receptors) | Sequence | survival of cerebellar granule neurons (CGN) [1]
1 | binding | ARVYDLGLRRLRQRR (listed as Homo sapiens) [N2, neurturin fragment] | –
2 | binding | VRVSELGLGYASDET (listed as Homo sapiens) [N1, neurturin fragment] | increases the survival of CGNs

More lines, now with the values behind:

Row | Sequence | binding to the GFRα receptors (SPR) (GFRα receptors) | survival of cerebellar granule neurons (CGN) [1]
3 | DEVSFLDAHSRY (listed as Homo sapiens) [NeuGi, neurturin-derived peptide] | binding | increases the survival of CGNs
4 | EAVSFMDVNSTWR (listed as Homo sapiens) [ArtGi, artemin-derived peptide] | binding | increases the survival of CGNs
5 | RSPHDLSLASLLGAG (listed as Homo sapiens) [A2, artemin fragment] | binding | increases the survival of CGNs
6 | VPVRALGLGHRSDEL (listed as Homo sapiens) [A1, artemin fragment] | – | increases the survival of CGNs
